Assay results published in US5733924A, “DC 107 derivatives and treatment methods” (Kyowa Hakko Kogyo Co., Ltd., priority 1995, dated 1998).

Test system: P388 Leukemia
Assay: Antitumor activity against P388 leukemia in mice (increased life span)
Type: in vivo, CDF1 mice
Conditions: Mus musculus, P388, ip, 720 h, read-out: ILS (increased life span)
Method: Ascites were collected from the abdominal cavity of P388 ascites tumor-bearing cancer mice (DBA/2) on the 7th day after transplantation. A number of P388 cells in the ascites was counted, and a tumor cell floating liquid of 5×10^6 cells/ml was prepared using a physiological saline solution. Then, 0.2 ml of the solution containing 1×10^6 cells was transplanted into the abdominal cavity of CDF1 mice having a body weight of from 20 to 25 g.
The effect of the test compound was determined in terms of the ratio of average survival days of the group administered with the test compound to average survival days of the control group (non-medicated group) (i.e., an increased life span, ILS%).

Row | Compound | ILS at 4 mg/kg | ILS at 2 mg/kg | ILS at 8 mg/kg | ILS at 1 mg/kg
1 | C/C1=C\C(O)C(=NOCc2ccccc2)/C=C/C=C\c2csc(n2)C(C)N2C(=O)CC(C(C)(O)C(=O)SCc3oc(=O)oc3C)(CC1)[S+]2[O-] (single isomer, unassigned) [Compound 73] | 43% | – | – | –
2 | C/C1=C\C(O)C(=O)/C=C/C=C\c2csc(n2)C(C)N2C(=O)CC(C(C)(O)C(=O)SCOC(=O)C(C)(C)C)(CC1)[S+]2[O-] (stereo not drawn) [Compound 34] | – | 48% | – | –
3 | C/C1=C\C(O)C(=O)/C=C/C=C\c2csc(n2)C(C)N2C(=O)CC(C(C)(O)C(=O)SCc3oc(=O)oc3C)(CC1)[S+]2[O-] (stereo not drawn) [Compound 35] | – | 65% | – | –
4 | C/C1=C\C(OC(=O)C2CCCCC2)C(=O)/C=C/C=C\c2csc(n2)C(C)N2C(=O)CC(C(C)(O)C(=O)SCc3oc(=O)oc3C)(CC1)[S+]2[O-] (stereo not drawn) [Compound 48] | – | – | 47% | –
5 | C/C1=C\C(OC(=O)Oc2ccccc2)C(=O)/C=C/C=C\c2csc(n2)C(C)N2C(=O)CC(C(C)(O)C(=O)SCc3oc(=O)oc3C)(CC1)[S+]2[O-] (stereo not drawn) [Compound 55] | – | – | – | 40%
6 | C/C1=C\C(OC(=O)OCc2ccccc2)C(=O)/C=C/C=C\c2csc(n2)C(C)N2C(=O)CC(C(C)(O)C(=O)SCc3oc(=O)oc3C)(CC1)[S+]2[O-] (stereo not drawn) [Compound 56] | – | – | – | 63%
7 | C/C1=C\C(OC(=O)OCC2c3ccccc3-c3ccccc32)C(=O)/C=C/C=C\c2csc(n2)C(C)N2C(=O)CC(C(C)(O)C(=O)SCc3oc(=O)oc3C)(CC1)[S+]2[O-] (stereo not drawn) [Compound 57] | 53% | – | – | –
8 | COC1(OC2C=C(C)CCC3(C(C)(O)C(=O)SCc4oc(=O)oc4C)CC(=O)N(C(C)c4nc(cs4)C=CC=CC2=O)[S+]3[O-])CC[S+]([O-])CC1 (stereo not drawn) [Compound 128] | 84% | – | – | –
9 | CC1=CC(OC(=O)[C@H](C)NC(=O)OCc2ccccc2)C(=O)C=CC=Cc2csc(n2)C(C)N2C(=O)CC(C(C)(O)C(=O)SCc3oc(=O)oc3C)(CC1)[S+]2[O-] (stereo partly drawn) [Compound 163] | – | 46% | – | –

Same assay, conditions: Mus musculus, P388, ip, 720 h; 1.0 mg/kg, single i.p. 24 hours after transplantation, CDF1 mice, 30 days observation; read-out: ILS (increased life span)

Row | Compound | ILS at 1 mg/kg
10 | C/C1=C\C(OC(=O)Oc2ccccc2)C(=O)/C=C/C=C\c2csc(n2)C(C)NC(=O)CC2(CC1)[S+]([O-])SC(=O)C2(C)O (stereo not drawn) [Compound 12] | 44%
11 | C/C1=C\C(OC(=O)OCc2ccccc2)C(=O)/C=C/C=C\c2csc(n2)C(C)NC(=O)CC2(CC1)[S+]([O-])SC(=O)C2(C)O (stereo not drawn) [Compound 14] | 42%
12 | COC1(OC2C=C(C)CCC3(C(C)(O)C(=O)SCc4oc(=O)oc4C)CC(=O)N(C(C)c4nc(cs4)C=CC=CC2=O)[S+]3[O-])CCS(=O)(=O)CC1 (stereo not drawn) [Compound 129] | 64%

Same assay, conditions: Mus musculus, P388, ip, 720 h; 2.0 mg/kg, single i.p. 24 hours after transplantation, CDF1 mice, 30 days observation; read-out: ILS (increased life span)

Row | Compound | ILS at 2 mg/kg
13 | C/C1=C\C(OC(=O)c2cnc3ccccc3n2)C(=O)/C=C/C=C\c2csc(n2)C(C)NC(=O)CC2(CC1)[S+]([O-])SC(=O)C2(C)O (stereo not drawn) [Compound 9] | 44%
14 | C/C1=C\C(OC(=O)OCC(C)C)C(=O)/C=C/C=C\c2csc(n2)C(C)NC(=O)CC2(CC1)[S+]([O-])SC(=O)C2(C)O (stereo not drawn) [Compound 11] | 50%
15 | CCOC(=O)OC1/C=C(\C)CCC2(C(C)(O)C(=O)SCOC(=O)C(C)(C)C)CC(=O)N(C(C)c3nc(cs3)/C=C\C=C\C1=O)[S+]2[O-] (stereo not drawn) [Compound 41] | 40%
16 | CCOC(=O)OC1/C=C(\C)CCC2(C(C)(O)C(=O)SCc3oc(=O)oc3C)CC(=O)N(C(C)c3nc(cs3)/C=C\C=C\C1=O)[S+]2[O-] (stereo not drawn) [Compound 53] | 43%
17 | C/C1=C\C(OC(=O)CNC(=O)OC(C)(C)C)C(=O)/C=C/C=C\c2csc(n2)C(C)NC(=O)CC2(CC1)[S+]([O-])SC(=O)C2(C)O (stereo not drawn) [Compound 96] | 46%
18 | CC1=CC(OC(=O)c2cccnc2)C(=O)C=CC=Cc2csc(n2)C(C)N2C(=O)CC(C(C)(O)C(=O)SCc3oc(=O)oc3C)(CC1)[S+]2[O-] (stereo not drawn) [Compound 144] | 49%
19 | CC1=CC(OC(=O)Cc2cccnc2)C(=O)C=CC=Cc2csc(n2)C(C)N2C(=O)CC(C(C)(O)C(=O)SCc3oc(=O)oc3C)(CC1)[S+]2[O-] (stereo not drawn) [Compound 147] | 60%
20 | CC1=CC(OC(=O)CO)C(=O)C=CC=Cc2csc(n2)C(C)N2C(=O)CC(C(C)(O)C(=O)SCc3oc(=O)oc3C)(CC1)[S+]2[O-] (stereo not drawn) [Compound 154] | 48%

Same assay, conditions: Mus musculus, P388, ip, 720 h; 4.0 mg/kg, single i.p. 24 hours after transplantation, CDF1 mice, 30 days observation; read-out: ILS (increased life span)

Row | Compound | ILS at 4 mg/kg
21 | C/C1=C\C(OC(=O)CN(C)C(=O)OCc2ccccc2)C(=O)/C=C/C=C\c2csc(n2)C(C)NC(=O)CC2(CC1)[S+]([O-])SC(=O)C2(C)O (stereo not drawn) [Compound 101] | 48%
22 | C/C1=C\C(OC(=O)[C@H](C)NC(=O)OC(C)(C)C)C(=O)/C=C/C=C\c2csc(n2)C(C)NC(=O)CC2(CC1)[S+]([O-])SC(=O)C2(C)O (stereo partly drawn) [Compound 102] | 49%
23 | C/C1=C\C(OC(=O)CCNC(=O)OCc2ccccc2)C(=O)/C=C/C=C\c2csc(n2)C(C)NC(=O)CC2(CC1)[S+]([O-])SC(=O)C2(C)O (stereo not drawn) [Compound 105] | 53%
24 | CC1=CC(OC(=O)C2CCC(=O)N2)C(=O)C=CC=Cc2csc(n2)C(C)N2C(=O)CC(C(C)(O)C(=O)SCc3oc(=O)oc3C)(CC1)[S+]2[O-] (stereo not drawn) [Compound 149] | 55%
25 | CC(=O)NCC(=O)OC1C=C(C)CCC2(C(C)(O)C(=O)SCc3oc(=O)oc3C)CC(=O)N(C(C)c3nc(cs3)C=CC=CC1=O)[S+]2[O-] (stereo not drawn) [Compound 160] | 62%
26 | CC1=CC(OC(=O)CN(C)C(=O)OC(C)(C)C)C(=O)C=CC=Cc2csc(n2)C(C)N2C(=O)CC(C(C)(O)C(=O)SCc3oc(=O)oc3C)(CC1)[S+]2[O-] (stereo not drawn) [Compound 161] | 65%
27 | CC1=CC(OC(=O)CNC(=O)[C@H](C)NC(=O)OCc2ccccc2)C(=O)C=CC=Cc2csc(n2)C(C)N2C(=O)CC(C(C)(O)C(=O)SCc3oc(=O)oc3C)(CC1)[S+]2[O-] (stereo partly drawn) [Compound 168] | 58%

Same assay, conditions: Mus musculus, P388, ip, 720 h; 8.0 mg/kg, single i.p. 24 hours after transplantation, CDF1 mice, 30 days observation; read-out: ILS (increased life span)

Row | Compound | ILS at 8 mg/kg
28 | COC1(OC2/C=C(\C)CCC3(CC(=O)NC(C)c4nc(cs4)/C=C\C=C\C2=O)[S+]([O-])SC(=O)C3(C)O)CCCCC1 (stereo not drawn) [Compound 91] | 48%
29 | COC1(OC2/C=C(\C)CCC3(CC(=O)NC(C)c4nc(cs4)/C=C\C=C\C2=O)[S+]([O-])SC(=O)C3(C)O)CCSCC1 (stereo not drawn) [Compound 92] | 48%
30 | C/C1=C\C(OC(=O)CNC(=O)[C@H](C)NC(=O)OCc2ccccc2)C(=O)/C=C/C=C\c2csc(n2)C(C)NC(=O)CC2(CC1)[S+]([O-])SC(=O)C2(C)O (stereo partly drawn) [Compound 110] | 58%
31 | C/C1=C\C(OC(=O)CNC(=O)CCNC(=O)OC(C)(C)C)C(=O)/C=C/C=C\c2csc(n2)C(C)NC(=O)CC2(CC1)[S+]([O-])SC(=O)C2(C)O (stereo not drawn) [Compound 112] | 67%
32 | C/C1=C\C(OC(=O)CNC(=O)C(CC(C)C)NC(=O)OCc2ccccc2)C(=O)/C=C/C=C\c2csc(n2)C(C)NC(=O)CC2(CC1)[S+]([O-])SC(=O)C2(C)O (stereo not drawn) [Compound 115] | 67%
33 | COC1(OC2C=C(C)CCC3(C(C)(O)C(=O)SCc4oc(=O)oc4C)CC(=O)N(C(C)c4nc(cs4)C=CC=CC2=O)[S+]3[O-])CCN(c2ccccc2)CC1 (stereo not drawn) [Compound 131] | 60%
34 | CC1=CC(OC(=O)[C@@H]2CCCN2C(=O)OC(C)(C)C)C(=O)C=CC=Cc2csc(n2)C(C)N2C(=O)CC(C(C)(O)C(=O)SCc3oc(=O)oc3C)(CC1)[S+]2[O-] (stereo partly drawn) [Compound 148] | 49%
35 | CC1=CC(OC(=O)CNC(=O)OCc2ccccc2)C(=O)C=CC=Cc2csc(n2)C(C)N2C(=O)CC(C(C)(O)C(=O)SCc3oc(=O)oc3C)(CC1)[S+]2[O-] (stereo not drawn) [Compound 157] | 98%
36 | CC1=CC(OC(=O)CNC=O)C(=O)C=CC=Cc2csc(n2)C(C)N2C(=O)CC(C(C)(O)C(=O)SCc3oc(=O)oc3C)(CC1)[S+]2[O-] (stereo not drawn) [Compound 159] | 50%
37 | CC1=CC(OC(=O)CN(C)C(=O)OCc2ccccc2)C(=O)C=CC=Cc2csc(n2)C(C)N2C(=O)CC(C(C)(O)C(=O)SCc3oc(=O)oc3C)(CC1)[S+]2[O-] (stereo not drawn) [Compound 162] | 57%
38 | CC1=CC(OC(=O)CNC(=O)CNC(=O)OCc2ccccc2)C(=O)C=CC=Cc2csc(n2)C(C)N2C(=O)CC(C(C)(O)C(=O)SCc3oc(=O)oc3C)(CC1)[S+]2[O-] (stereo not drawn) [Compound 166] | 64%
39 | CC1=CC(OC(=O)CNC(=O)C(CC(C)C)NC(=O)OCc2ccccc2)C(=O)C=CC=Cc2csc(n2)C(C)N2C(=O)CC(C(C)(O)C(=O)SCc3oc(=O)oc3C)(CC1)[S+]2[O-] (stereo not drawn) [Compound 173] | 64%

Same assay, conditions: Mus musculus, P388, ip, 720 h; 16 mg/kg, single i.p. 24 hours after transplantation, CDF1 mice, 30 days observation

Row | Compound | ILS at 16 mg/kg
40 | C/C1=C\C(OC(=O)CNC(=O)CCCNC(=O)OCc2ccccc2)C(=O)/C=C/C=C\c2csc(n2)C(C)NC(=O)CC2(CC1)[S+]([O-])SC(=O)C2(C)O (stereo not drawn) [Compound 113] | 58%
41 | C/C1=C\C(OC(=O)CCNC(=O)CNC(=O)OCc2ccccc2)C(=O)/C=C/C=C\c2csc(n2)C(C)NC(=O)CC2(CC1)[S+]([O-])SC(=O)C2(C)O (stereo not drawn) [Compound 118] | 71%
42 | C/C1=C\C(OC(=O)CCNC(=O)CCNC(=O)OCc2ccccc2)C(=O)/C=C/C=C\c2csc(n2)C(C)NC(=O)CC2(CC1)[S+]([O-])SC(=O)C2(C)O (stereo not drawn) [Compound 119] | 63%
43 | CC1=CC(OC2CCCCO2)C(=NO)C=CC=Cc2csc(n2)C(C)N2C(=O)CC(C(C)(O)C(=O)SCc3oc(=O)oc3C)(CC1)[S+]2[O-] (stereo not drawn) [Compound 125] | 54%
44 | CC1=CC(OC(=O)CNC(=O)CCNC(=O)OCc2ccccc2)C(=O)C=CC=Cc2csc(n2)C(C)N2C(=O)CC(C(C)(O)C(=O)SCc3oc(=O)oc3C)(CC1)[S+]2[O-] (stereo not drawn) [Compound 169] | 91%
45 | CC1=CC(OC(=O)CNC(=O)CCCNC(=O)OCc2ccccc2)C(=O)C=CC=Cc2csc(n2)C(C)N2C(=O)CC(C(C)(O)C(=O)SCc3oc(=O)oc3C)(CC1)[S+]2[O-] (stereo not drawn) [Compound 171] | 63%
